Results as given in patent US9573910B2, “Oxazolidinone antibacterial compound” (Lee Pharma Limited, priority 2013, dated 2017).
Read-outs that look alike come from different tables or passages of the source.

Key:
S. maltophilia = test: Susceptibility test profile for commercially available antibiotics; assay type: cell-based, Stenotrophomonas maltophilia
Method: Anti bacterial evaluation of compound-I was done against Stenotrophomonas maltophilia on following parameters— • f. Agar-plate assay for different concentrations (10, 50, 100, 150 μg) • g. MIC studies • 1. With different concentrations (1000 to 5 μg/ml-˜10 different concentrations) • 2. Different time periods (4 to 32 hrs—8 different time intervals) • h. Mode of action with relation to survivability of organism • 1. Cidal/static with concentration and incubation time based) • 2. Evaluation by colony counting/dye based • i. Susceptibility test (evaluation of >40 antibiotics of different nature) • j. Antibacterial potential studies with other infectious bacteria (˜20 different strains) Results Agar-Plate Assay
Susceptibility Test Profile of S. maltophilia for Different Antibiotics (FIG. 10)

[1] = test system: Stenotrophomonas maltophilia; test: Agar plate assay, zone of growth inhibition; assay type: cell-based; conditions: for zone of inhibition at 50 µg/disc: Stenotrophomonas maltophilia, read-out: Zone of growth inhibition in mm; for Activity against S. maltophilia (in words): agar plate
Method: To evaluate the same, 0 to 250 μg concentration range used for agar plate assay. Two percent agar plates were prepared and 24 hours grown S. maltophilia was spread on agar plate and incubated at 4° C. After 30 min, the agar plates consisting of S. maltophilia were brought to sterile environment at room temperature and using sterile borer wells were developed. […] After 24 hours of incubation at 37° C., the zone of inhibition was measured.

M. luteus = assay type: cell-based
B. sterothemophilus = assay type: cell-based
S. maltophilla = assay type: cell-based
P. putida = assay type: cell-based
K. pneumonia = assay type: cell-based
P. aeruginosa = assay type: cell-based
E. coli = assay type: cell-based
P. vulgaris = assay type: cell-based
S. typhi = assay type: cell-based
B. subtilis = assay type: cell-based
S. mutans = assay type: cell-based
B. sphaericus = assay type: cell-based
B. circulans = assay type: cell-based
Lysinobacillus = assay type: cell-based
B. cereus (1) = assay type: cell-based
B. megatherium = assay type: cell-based
B. cereus (2) = assay type: cell-based
P. mirabilis = assay type: cell-based
B. cereus (3) = assay type: cell-based

CC[C@H]1OC(=O)[C@H](C)[C@@H](O[C@H]2C[C@@](C)(OC)[C@@H](O)[C@H](C)O2)[C@H](C)[C@@H](O[C@@H]2O[C@H](C)C[C@H](N(C)C)[C@H]2O)[C@](C)(OC)C[C@@H](C)C(=O)[C@H](C)[C@@H](O)[C@]1(C)O [Clarithromycin]
Zone (mm) (S. maltophilia; Quantity 15 μg): Resistant

O=C1OCCN1/N=C/c1ccc([N+](=O)[O-])o1 [Furazolidone]
Zone (mm) (S. maltophilia; Quantity 50 μg): Resistant

CCC[C@@H]1C[C@@H](C(=O)N[C@@H]([C@H]2O[C@H](SC)[C@H](O)[C@@H](O)[C@H]2O)[C@@H](C)O)N(C)C1 [Lincomycin]
Zone (mm) (S. maltophilia; Quantity 2 μg): Resistant

CC(=O)NC[C@H]1CN(c2ccc(N3CCOCC3)c(F)c2)C(=O)O1 [Linezolid]
zone of inhibition at 50 µg/disc ([1]; S. maltophilia, agar plates, 50 μg of each compound dissolved in DMSO): 0 mm | Activity against S. maltophilia (in words) [1]: not inhibitory | Zone of growth inhibition in mm (M. luteus): 45 mm | Zone of growth inhibition in mm (B. sterothemophilus): 00 mm | Zone of growth inhibition in mm (S. maltophilla): 00 mm | Zone of growth inhibition in mm (P. putida): 00 mm | Zone of growth inhibition in mm (K. pneumonia): 35 mm | Zone of growth inhibition in mm (P. aeruginosa): 00 mm | Zone of growth inhibition in mm (E. coli): 35 mm | Zone of growth inhibition in mm (P. vulgaris): 00 mm | Zone of growth inhibition in mm (S. typhi): 40 mm | Zone of growth inhibition in mm (B. subtilis): 40 mm | Zone of growth inhibition in mm (S. mutans): 40 mm | Zone of growth inhibition in mm (B. sphaericus): 30 mm | Zone of growth inhibition in mm (B. circulans): 38 mm | Zone of growth inhibition in mm (Lysinobacillus): 40 mm | Zone of growth inhibition in mm (B. cereus (1)): 00 mm | Zone of growth inhibition in mm (B. megatherium): 37 mm | Zone of growth inhibition in mm (B. cereus (2)): 35 mm | Zone of growth inhibition in mm (P. mirabilis): 35 mm | Zone of growth inhibition in mm (B. cereus (3)): 45 mm | Zone of growth inhibition in mm (S. paratyphi): 00 mm

CCn1cc(C(=O)O)c(=O)c2ccc(C)nc21 [Nalidixic]
Zone (mm) (S. maltophilia; Quantity 30 μg): 7 mm

CCN[C@@H]1C[C@H](N)[C@@H](O[C@H]2OC(CN)=CC[C@H]2N)[C@H](O)[C@H]1O[C@H]1OC[C@](C)(O)[C@H](NC)[C@H]1O.CCN[C@@H]1C[C@H](N)[C@@H](O[C@H]2OC(CN)=CC[C@H]2N)[C@H](O)[C@H]1O[C@H]1OC[C@](C)(O)[C@H](NC)[C@H]1O.O=S(=O)(O)O.O=S(=O)(O)O.O=S(=O)(O)O.O=S(=O)(O)O.O=S(=O)(O)O [Netillin(Netilmicin sulphate), Netilmicin sulphate]
Zone (mm) (S. maltophilia; Quantity 30 μg): 7 mm

CN[C@H](CC(C)C)C(=O)N[C@H]1C(=O)N[C@@H](CC(N)=O)C(=O)N[C@H]2C(=O)N[C@H]3C(=O)N[C@H](C(=O)N[C@H](C(=O)O)c4cc(O)cc(O)c4-c4cc3ccc4O)[C@H](O)c3ccc(c(Cl)c3)Oc3cc2cc(c3O[C@@H]2O[C@H](CO)[C@@H](O)[C@H](O)[C@H]2O[C@H]2C[C@](C)(N)[C@H](O)[C@H](C)O2)Oc2ccc(cc2Cl)[C@H]1O [Vancomycin]
zone of inhibition at 50 µg/disc [1]: 0 mm | Activity against S. maltophilia (in words) [1]: not inhibitory | Zone of growth inhibition in mm (M. luteus): 32 mm | Zone of growth inhibition in mm (B. sterothemophilus): 00 mm | Zone of growth inhibition in mm (S. maltophilla): 00 mm | Zone of growth inhibition in mm (P. putida): 00 mm | Zone of growth inhibition in mm (K. pneumonia): 25 mm | Zone of growth inhibition in mm (P. aeruginosa): 00 mm | Zone of growth inhibition in mm (E. coli): 25 mm | Zone of growth inhibition in mm (P. vulgaris): 00 mm | Zone of growth inhibition in mm (S. typhi): 14 mm | Zone of growth inhibition in mm (B. subtilis): 25 mm | Zone of growth inhibition in mm (S. mutans): 30 mm | Zone of growth inhibition in mm (B. sphaericus): 12 mm | Zone of growth inhibition in mm (B. circulans): 27 mm | Zone of growth inhibition in mm (Lysinobacillus): 30 mm | Zone of growth inhibition in mm (B. cereus (1)): 00 mm | Zone of growth inhibition in mm (B. megatherium): 27 mm | Zone of growth inhibition in mm (B. cereus (2)): 27 mm | Zone of growth inhibition in mm (P. mirabilis): 27 mm | Zone of growth inhibition in mm (B. cereus (3)): 32 mm | Zone of growth inhibition in mm (S. paratyphi): 25 mm

Gentamicin
Zone (mm) (S. maltophilia; Quantity 10 μg): 7 mm

Penicillin
Zone (mm) (S. maltophilia; Quantity 10 μg): 6 mm

Teicoplanin
Zone (mm) (S. maltophilia; Quantity 30 μg): 4 mm
